This note sets out measurements from patent US7317038B2, “Nerve regeneration promoters containing semaphorin inhibitor as the active ingredient” (Dainippon Sumitomo Pharma Co., Ltd., priority 2000, dated 2008).

Entries after “also recorded” stand apart in the source; their conditions may differ.

One assay concerns the target T1, Sema3A (Mus musculus, UniProt O08665).
T1 construct: expressed in transfected cells; host or cells: COS7
T1 sequence (O08665 21-772): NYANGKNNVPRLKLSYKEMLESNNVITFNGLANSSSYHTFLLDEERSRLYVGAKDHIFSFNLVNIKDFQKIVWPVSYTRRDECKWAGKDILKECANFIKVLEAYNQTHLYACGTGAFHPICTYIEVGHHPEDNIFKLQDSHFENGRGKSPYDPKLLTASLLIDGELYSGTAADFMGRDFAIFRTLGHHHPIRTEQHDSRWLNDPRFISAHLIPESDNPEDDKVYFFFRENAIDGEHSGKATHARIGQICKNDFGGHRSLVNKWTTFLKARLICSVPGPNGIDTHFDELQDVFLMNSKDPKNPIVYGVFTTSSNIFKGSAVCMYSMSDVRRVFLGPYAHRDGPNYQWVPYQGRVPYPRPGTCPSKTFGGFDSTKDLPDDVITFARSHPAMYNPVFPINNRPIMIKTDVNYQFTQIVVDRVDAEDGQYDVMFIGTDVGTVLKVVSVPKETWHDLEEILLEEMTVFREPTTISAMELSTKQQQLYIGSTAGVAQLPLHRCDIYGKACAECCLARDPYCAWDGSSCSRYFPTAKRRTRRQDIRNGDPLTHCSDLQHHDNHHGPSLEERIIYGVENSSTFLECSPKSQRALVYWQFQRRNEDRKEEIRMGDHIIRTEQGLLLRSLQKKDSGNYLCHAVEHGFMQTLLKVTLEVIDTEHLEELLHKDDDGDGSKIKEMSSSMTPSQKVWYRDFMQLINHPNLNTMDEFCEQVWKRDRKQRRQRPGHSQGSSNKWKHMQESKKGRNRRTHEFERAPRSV
Nature of the assay: Collagen gel co-culture: suppression of neurite outgrowth inhibitory action of Sema3A. Type of assay: cell-based. On the set-up: key to suppression of neurite outgrowth inhibitory activity of Sema3A, score / inhibition of neurite outgrowth-inhibitory action of Sema3A, score: neurites outgrew in a complete concentric circular shape just like for the control groups where Sema3A-non-expressing COS7 cells were used, it was scored +++ (a strong inhibitory effect for Sema3A); outgrowth was found almost in a concentric circular shape accompanied with a little suppression of the outgrowth toward the direction of Sema3A-expressing COS cells, it was scored ++; outgrowth toward the direction of Sema3A-expressing COS cells is fairly suppressed to present a crescent shape, it was scored +; outgrowth toward the direction of Sema3A-expressing COS cells was not found at all (no inhibitory effect for Sema3A), it was scored −. The conditions noted are these: for suppression of neurite outgrowth inhibitory activity of Sema3A, score: Example 5. As for the experimental part:
Whether the object compounds (SPF-3059-1, M162, A721) have persistent inhibitory action to Sema3A was analyzed by the collagen gel co-culture method (Neuroprotocols 4, 116, 1994) using Sema3A-expressing COS7 cell clumps and 7- or 8-day-old chick embryo dorsal root ganglions. The Sema3A-expressing COS7 cell clumps were generated as follows. 1 μg of Sema3A-expression plasmid was introduced into COS7 cells (100000 cells/35 mm culture plate), which were cultured overnight, with the FuGENE6 transfection reagent (Roche). 2.5 hours after the starting of the transfection, the COS7 cells were collected by trypsinization and centrifugation, and re-suspended in a medium of 200 μl. 20 μl of the cell suspension was placed on the lid of the culture plate (inside) and the lid was turned over, and then the suspension was cultivated for 20 hours (hanging drop culture) (Cell 78, 425, 1994). When the culture was over, aggregated COS7 cells (clump) were collected and trimmed to a diameter of 0.5 mm. The Sema3A-expressing COS7 cell clump and the above-mentioned dorsal root ganglions were placed in parallel at a distance of 0.5 to 1 mm in a 0.2% collagen gel which was then cultivated in a medium containing the aforementioned compounds at various concentrations for 2 days at 37° C. under 5% CO2. Glutaraldehyde was quickly added therein to make the final concentration 1%. The cultures were then left for 1 hour at room temperature so that the tissues were fixed, and the neurite outgrowth was microscopically observed. The results are found in FIG. 4.
When a medium not containing a subject compound was used, neurites were unable to grow towards the COS7 cell clump with the high concentration of Sema3A and grew only to the opposite direction.
In a similar way as in Example 4, suppression of the neurite outgrowth inhibitory activity was analyzed for the compounds, SPF-3059-1, SPF-3059-2 and SPF-3059-5. When the neurites outgrew in a complete concentric circular shape just like for the control groups where Sema3A-non-expressing COS7 cells were used, it was scored +++ (a strong inhibitory effect for Sema3A). When the outgrowth was found almost in a concentric circular shape accompanied with a little suppression of the outgrowth toward the direction of Sema3A-expressing COS cells, it was scored ++. […] When the outgrowth toward the direction of Sema3A-expressing COS cells was not found at all (no inhibitory effect for Sema3A), it was scored −.

Assay [1] has as its target T2, mouse semaphorin 3A (Sema3A) (Mus musculus, UniProt O08665).
T2 sequence (O08665 21-772): T1 sequence (O08665 21-772)
Kind of assay: Suppression of growth cone collapse activity of Sema3A (chick embryo dorsal root ganglions). It counts as cell-based. As for the experimental part:
A 96-well plate (Sumitomo Bakelite Co., ltd. ) pre-coated with polylysine was further coated with laminine (20 μg/ml of laminine, for 1 hour at room temperature). Each well was added with 100 μl of medium (F12 medium containing 10% bovine fetal serum, 20 ng/ml of NGF, 100 units/ml of penicillin and 100 μg/ml of streptomycin) which media were then inoculated with dorsal root nerve ganglions excised from E7 (Embryonic day 7) chick embryo and were cultured for 16 to 20 hours under 5% CO2 and at 37° C. Subsequently, the object compounds were added to media at various concentrations and 2 units/ml of mouse semaphorin 3A (Sema3A) was added after cultivating for 1 hour. The cultures were further incubated for another 1 hour. Glutaraldehyde was quickly added therein after said 1 hour to make the final concentration 1%. The cultures were then left for 15 minutes at room temperature so that the tissue sections were fixed, and collapse rates of the growth cones were microscopically observed. A well with no addition of Sema3A was made the control.
The longitudinal and lateral axes in the figures represent the collapse rate of growth cones and the concentration of compounds, respectively. ●▪▴ show the results when Sema3A was added after the addition of the compounds and ◯[…]Δ show those when Sema3A was not added. Further, IC50 (μg/ml) of the inhibitors were determined by the method comprising: calculating the collapse rate of growth cone (A) % of the negative controls (neither compounds nor Sema3a was added); subsequently calculate the collapse rate of growth cone (B) % of the positive controls (compounds were not added but Sema3a was added); and the concentration was chosen for each compound from the chart where the collapse rate of growth cone met (A+B)/2(%), which was made IC50 level. The followings are the results.

As usually defined, the IC50 is the concentration that gives 50% inhibition. For `CC(=O)c1c(C)c(C(=O)C2COc3cc(O)c(O)c(C(=O)O)c3C2=O)cc2c(=O)c3c(C(=O)O)c(O)c(O)cc3oc12` (stereo not drawn) [SPF-3059-1], the “suppression of neurite outgrowth inhibitory activity of Sema3A, score” value at Sema3A (0.5 μg/ml compound) is “+”; at Sema3A (1.0 μg/ml compound), “++”; at Sema3A (2.0 μg/ml compound), “+++”. Further, the “persistent inhibitory action to Sema3A (neurite outgrowth toward Sema3A-expressing COS7 cell clump)” value at Sema3A (collagen gel co-culture, 2 days) is “persistently inhibit Sema3A activities; also recorded: persistently inhibited the action of Sema3A”. The concentration for half-maximal inhibition (IC50) in assay [1] (E7 chick embryo dorsal root ganglions, 2 units/ml Sema3A added 1 hour after compound, concentration where collapse rate = (A+B)/2, read-out: IC50 of inhibition of the growth cone collapse activity of Sema3A (converted)) was below 0.173 µM. The “inhibition of growth cone collapse activity of Sema3A (in words)” value in assay [1] (chick embryo dorsal root ganglions) is recorded as “inhibit the growth cone collapse activities of Sema3A in a concentration-dependent manner; also recorded: potently inhibit semaphorin”.
